Source: US9365562B2, “1,3 substituted azetidine PDE10 inhibitors” (Merck Sharp & Dohme Corp., priority 2011, dated 2016)

Target: human PDE10A2 (Homo sapiens (Human), UniProt Q9Y233)
Test: PDE10 fluorescence polarization (IMAP FP) inhibition assay
Assay type: biochemical
Conditions: apparent inhibition constant, FAM-labeled cAMP substrate 50 nM, room temperature
Description: The activity of the compounds in accordance with the present invention as PDE10 inhibitors may be readily determined without undue experimentation using a fluorescence polarization (FP) methodology that is well known in the art (Huang, W., et al., J. Biomol Screen, 2002, 7: 215).
In a typical experiment the PDE10 inhibitory activity of the compounds of the present invention was determined in accordance with the following experimental method. PDE10A2 was amplified from human fetal brain cDNA (Clontech, Mountain View, Calif.) using a forward primer corresponding to nucleotides 56-77 of human PDE10A2 (Accession No. AF127480, Genbank Identifier 4894716), containing a Kozak consensus sequence, and a reverse primer corresponding to nucleotides 2406-2413 of human PDE10A2 (Accession No. AF127480, Genbank Identifier 4894716). Amplification with Easy-A polymerase (Stratagene, La Jolla, Calif.) was 95° C. for 2 minutes followed by thirty three cycles of 95° C. for 40 seconds, 55° C. for 30 seconds, and 72° C. for 2 minutes 48 seconds. Final extension was 72° C. for 7 minutes. The PCR product was TA cloned into pcDNA3.2-TOPO (Invitrogen, Carlsbad, Calif.) according to standard protocol. AD293 cells with 70-80% confluency were transiently transfected with human PDE10A2/pcDNA3.2-TOPO using Lipofectamine 2000 according to manufacturer specifications (Invitrogen, Carlsbad, Calif.). Cells were harvested 48 hours post-transfection and lysed by sonication (setting 3, 10×5 sec pulses) in a buffer containing 20 mM HEPES, 1 mM EDTA and protease inhibitor cocktail (Roche). Lysate was collected by centrifugation at 75,000×g for 20 minutes. Supernatant containing the cytoplasmic fraction was used for evaluation of PDE10A2 activity. The fluorescence polarization assay for cyclic nucleotide phosphodiesterases was performed using an IMAP® FP kit supplied by Molecular Devices, Sunnyvale, Calif. (product # R8139). IMAP® technology has been applied previously to phosphodiesterase assays (Huang, W., et al., J. Biomol Screen, 2002, 7: 215). Assays were performed at room temperature in 384-well microtiter plates with an incubation volume of 20.2 μL. Solutions of test compounds were prepared in DMSO and serially diluted with DMSO to yield 8 μL of each of 10 solutions differing by 3-fold in concentration, at 32 serial dilutions per plate. 100% inhibition is determined using a known PDE10 inhibitor, which can be any compound that is present at 5,000 times its Ki value in the assay described as follows, such as papaverine (see Siuciak, et al. Neuropharmacology (2006) 51:386-396; Becker, et al. Behav Brain Res (2008) 186(2):155-60; Threlfell, et al., J Pharmacol Exp Ther (2009) 328(3):785-795), 2-{4-[pyridin-4-yl-1-(2,2,2-trifluoroethyl)-1H-pyrazol-3-yl]phenoxymethyl}quinoline succinic acid or 2-[4-(1-methyl-4-pyridin-4-yl-1H-pyrazol-3-yl)-phenoxymethyl]quinoline succinic acid (see Schmidt, et al. J Pharmacol Exp Ther (2008) 325:681-690; Threlfell, et al., J Pharmacol Exp Ther (2009) 328(3): 785-795). 0% of inhibition is determined by using DMSO (1% final concentrations). A Labcyte Echo 555 (Labcyte, Sunnyvale, Calif.) is used to dispense […] from each well of the titration plate to the 384 well assay plate. A solution of enzyme (1/7000 dilution from aliquots; sufficient to produce 20% substrate conversion) and a separate solution of FAM-labeled cAMP PDE from Molecular Devices (product # R7506), at a final concentration of 50 nM are made in the assay buffer (10 mM Tris HCl, pH 7.2, 10 mM MgCl2, 0.05% NaN3 0.01% Tween-20, and 1 mM DTT). The enzyme is added to the assay plates by the addition of 10 μL of enzyme solution to each well, shaken to mix and incubated at room temperature for 60 minutes. The substrate is then added to the assay plates by the addition of 10 μL of substrate solution to each well, shaken to mix, and incubated at room temperature for 60 minutes. […]

human PDE10A2, sequence (Q9Y233 267-1055): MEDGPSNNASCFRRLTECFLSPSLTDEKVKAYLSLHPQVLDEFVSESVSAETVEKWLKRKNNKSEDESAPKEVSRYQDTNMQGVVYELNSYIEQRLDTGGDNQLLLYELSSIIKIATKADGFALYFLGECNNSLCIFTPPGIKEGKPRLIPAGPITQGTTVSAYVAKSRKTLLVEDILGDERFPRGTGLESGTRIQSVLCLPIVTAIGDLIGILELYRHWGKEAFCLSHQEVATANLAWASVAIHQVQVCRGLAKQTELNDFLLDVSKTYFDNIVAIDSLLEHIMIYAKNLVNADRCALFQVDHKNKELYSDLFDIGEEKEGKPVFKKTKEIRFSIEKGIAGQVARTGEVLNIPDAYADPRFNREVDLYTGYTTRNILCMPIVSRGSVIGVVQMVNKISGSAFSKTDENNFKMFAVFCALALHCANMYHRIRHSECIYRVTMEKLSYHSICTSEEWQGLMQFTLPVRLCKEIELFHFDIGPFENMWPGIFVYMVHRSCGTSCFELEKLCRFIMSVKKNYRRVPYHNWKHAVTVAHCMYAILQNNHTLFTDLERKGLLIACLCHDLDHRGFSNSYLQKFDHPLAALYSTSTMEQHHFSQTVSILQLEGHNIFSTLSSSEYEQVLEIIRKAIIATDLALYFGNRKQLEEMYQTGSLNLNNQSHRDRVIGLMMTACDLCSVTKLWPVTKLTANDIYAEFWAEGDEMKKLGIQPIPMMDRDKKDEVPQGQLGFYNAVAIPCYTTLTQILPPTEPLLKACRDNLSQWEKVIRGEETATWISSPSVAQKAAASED

Row | Compound | Ki [nM]
1 | Cc1nc(-c2ccccn2)cc(N2CC(c3nc4ccccc4n3C)C2)n1 [Example 95, 1-methyl-2-(1-(2-methyl-6-(pyridin-2-yl)pyrimidin-4-yl)azetidin-3-yl)-1H-benzo[d]imidazole] | 1.8
2 | CCc1nc(C)nn1-c1cc(N2CC(c3nc4ccccc4n3C)C2)nc(C(F)(F)F)n1 [Example 67, 2-(1-(6-(5-ethyl-3-methyl-1H-1,2,4-triazol-1-yl)-2-(trifluoromethyl)pyrimidin-4-yl)azetidin-3-yl)-1-methyl-1H-benzo[d]imidazole] | 0.28
3 | Cc1nc(C)n(-c2cc(N3CC(c4nc5ccccc5n4C)C3)nc(OCc3nccs3)n2)n1 [Example 72, 2-(((4-(3,5-dimethyl-1H-1,2,4-triazol-1-yl)-6-(3-(1-methyl-1H-benzo[d]imidazol-2-yl)azetidin-1-yl)pyrimidin-2-yl)oxy)methyl)thiazole] | 0.28
4 | Cc1nc(-c2ccccc2O)cc(N2CC(c3nc4ccccc4n3C)C2)n1 [Example 92, 2-(2-methyl-6-(3-(1-methyl-1H-benzo[d]imidazol-2-yl)azetidin-1-yl)pyrimidin-4-yl)phenol] | 30
5 | Cc1nc(N2CC(c3nc4ccccc4n3C)C2)cc(-n2nc(C)nc2CN2CCCC2=O)n1 [Example 48, 1-((3-methyl-1-(2-methyl-6-(3-(1-methyl-1H-benzo[d]imidazol-2-yl)azetidin-1-yl)pyrimidin-4-yl)-1H-1,2,4-triazol-5-yl)methyl)pyrrolidin-2-one] | 0.26
6 | Cc1nc(-c2cccnc2C)cc(N2CC(c3nc4ccccc4n3C)C2)n1 [Example 80, 1-Methyl-2-(1-(2-methyl-6-(2-methylpyridin-3-yl)pyrimidin-4-yl)azetidin-3-yl)-1H-benzo[d]imidazole] | > 100
7 | Cc1ccc2nc(C3CN(c4cc(-n5nc(C)nc5C)nc(C)n4)C3)[nH]c2c1 [Example 111, 2-(1-(6-(3,5-dimethyl-1H-1,2,4-triazol-1-yl)-2-methylpyrimidin-4-yl)azetidin-3-yl)-6-methyl-1H-benzo[d]imidazole] | 39
8 | Cc1ccc(-c2cc(N3CC(c4nc5ccccc5n4C)C3)nc(C)n2)c(F)n1 [Example 85, 2-(1-(6-(2-fluoro-6-methylpyridin-3-yl)-2-methylpyrimidin-4-yl)azetidin-3-yl)-1-methyl-1H-benzo[d]imidazole] | 8
9 | CCCc1nc(C)nn1-c1cc(N2CC(c3nc4ccccc4n3C)C2)nc(C)n1 [Example 38, 1-methyl-2-(1-(2-methyl-6-(3-methyl-5-propyl-1H-1,2,4-triazol-1-yl)pyrimidin-4-yl)azetidin-3-yl)-1H-benzo[d]imidazole] | 0.41
10 | Cc1nc(N2CC(c3nc4ccccc4n3C)C2)cc(-n2nc(C)c(C)c2C)n1 [Example 9, 1-methyl-2-(1-(2-methyl-6-(3,4,5-trimethyl-1H-pyrazol-1-yl)pyrimidin-4-yl)azetidin-3-yl)-1H-benzo[d]imidazole] | 0.93
11 | Cc1cnn(-c2cc(N3CC(c4nc5ccccc5n4C)C3)nc(C(F)(F)F)n2)n1 [Example 31, 1-methyl-2-(1-(6-(4-methyl-2H-1,2,3-triazol-2-yl)-2-(trifluoromethyl)pyrimidin-4-yl)azetidin-3-yl)-1H-benzo[d]imidazole] | 1.2
12 | Cc1nc(-c2ccccc2F)cc(N2CC(c3nc4ccccc4n3C)C2)n1 [Example 90, 2-(1-(6-(2-fluorophenyl)-2-methylpyrimidin-4-yl)azetidin-3-yl)-1-methyl-1H-benzo[d]imidazole] | 15
13 | COc1ccccc1-c1cc(N2CC(c3nc4ccccc4n3C)C2)nc(C)n1 [Example 89, 2-(1-(6-(2-methoxyphenyl)-2-methylpyrimidin-4-yl)azetidin-3-yl)-1-methyl-1H-benzo[d]imidazole] | 63
14 | Cc1nc(N2CC(c3nc4ccccc4n3C)C2)cc(-n2nc(C)nc2C)n1 [Example 1, 2-(1-(6-(3,5-dimethyl-1H-1,2,4-triazol-1-yl)-2-methylpyrimidin-4-yl)azetidin-3-yl)-1-methyl-1H-benzo[d]imidazole] | 2.1
